Source: ChEMBL document CHEMBL2073743, “HMG-CoA reductase inhibitors (statins) characterized as direct inhibitors of P-glycoprotein” (Pharm Res, 2001)

Experiments:
[1] = biological target: T1, ATP-dependent translocase ABCB1 (Homo sapiens, UniProt P08183); assay: TP_TRANSPORTER: inhibition of Daunorubicin transport in 3T3-G185 cells; type: functional, cell-based
[2] = biological target: T1, ATP-dependent translocase ABCB1; assay: TP_TRANSPORTER: inhibition of Rhodamine 123 transport in 3T3-G185 cells; type: functional, cell-based

T1 sequence (P08183 whole entry): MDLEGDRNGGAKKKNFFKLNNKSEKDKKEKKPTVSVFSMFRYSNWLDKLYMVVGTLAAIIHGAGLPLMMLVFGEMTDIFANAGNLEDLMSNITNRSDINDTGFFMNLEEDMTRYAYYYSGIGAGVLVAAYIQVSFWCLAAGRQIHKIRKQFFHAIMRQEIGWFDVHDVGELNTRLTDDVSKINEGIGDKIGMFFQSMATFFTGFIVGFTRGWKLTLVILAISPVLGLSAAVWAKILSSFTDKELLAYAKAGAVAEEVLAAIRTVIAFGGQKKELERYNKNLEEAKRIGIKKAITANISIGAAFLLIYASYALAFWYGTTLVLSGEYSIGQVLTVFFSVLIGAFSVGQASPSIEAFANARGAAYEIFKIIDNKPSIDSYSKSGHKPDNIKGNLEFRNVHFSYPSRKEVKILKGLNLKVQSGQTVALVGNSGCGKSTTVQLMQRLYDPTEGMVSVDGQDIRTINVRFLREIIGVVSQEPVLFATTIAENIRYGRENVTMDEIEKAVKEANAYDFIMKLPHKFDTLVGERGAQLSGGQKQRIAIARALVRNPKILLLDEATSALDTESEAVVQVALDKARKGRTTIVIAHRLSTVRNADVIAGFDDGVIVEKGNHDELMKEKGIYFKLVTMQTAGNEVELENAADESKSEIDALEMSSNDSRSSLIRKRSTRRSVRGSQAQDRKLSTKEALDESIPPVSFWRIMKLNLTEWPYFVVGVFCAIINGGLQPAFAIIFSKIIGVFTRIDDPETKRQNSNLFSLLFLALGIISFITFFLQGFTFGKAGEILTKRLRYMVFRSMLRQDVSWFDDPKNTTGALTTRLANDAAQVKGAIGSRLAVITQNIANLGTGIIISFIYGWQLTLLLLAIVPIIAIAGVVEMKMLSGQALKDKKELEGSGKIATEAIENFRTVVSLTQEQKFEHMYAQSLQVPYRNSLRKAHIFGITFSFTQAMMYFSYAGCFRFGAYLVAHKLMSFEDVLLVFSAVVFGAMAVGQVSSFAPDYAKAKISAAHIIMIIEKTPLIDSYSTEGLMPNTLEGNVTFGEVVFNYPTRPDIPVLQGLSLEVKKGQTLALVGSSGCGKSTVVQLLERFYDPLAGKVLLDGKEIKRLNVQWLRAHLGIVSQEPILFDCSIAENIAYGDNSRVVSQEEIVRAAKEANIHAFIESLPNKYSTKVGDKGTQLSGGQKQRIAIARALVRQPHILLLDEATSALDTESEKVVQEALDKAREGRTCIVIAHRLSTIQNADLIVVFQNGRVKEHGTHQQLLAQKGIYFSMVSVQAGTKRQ

An IC50 [1] of 271 µM and an IC50 [2] of 307 µM were found for `CC(C)c1c(C(=O)Nc2ccccc2)c(-c2ccccc2)c(-c2ccc(F)cc2)n1CC[C@@H](O)C[C@@H](O)CC(=O)O` [ATORVASTATIN] in this work.
